Test [1] concerns the target T1, Human TREM2 (Homo sapiens, UniProt Q9NZC2).
T1 construct: expressed in transfected cells
Put plainly: Human TREM2 activity: cellular phosphorylation of Syk (AlphaLISA SureFire Ultra p-SYK) in HEK293/DAP12+TREM2 stable cell line. It counts as cell-based. The conditions noted are these: for Emax: HEK293, maximal response relative to reference agonist example 1B (remaining examples), read-out: Emax; for EC50: phospho-Syk AlphaLISA signal, HEK293/DAP12+TREM2 cells, concentration giving 50% of maximal response, read-out: EC50. A digest of the protocol:
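The read-out was p-Syk (Tyr525/526), measured by AlphaLISA in lysates of a stable HEK293/DAP12+TREM2 clone. Cells (10,000/well, plated the day before) received compound for 30 min at 37 °C. Dosing used 8 points in quadruplicate, top 100 μM with 1:6 dilution, 0.5% final DMSO.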

Test [2] deals with TREM2 regulated genes CXCL10, CCL2, CST7, and TMEM119. Put plainly: Pharmacodynamics in hTREM2 knock-in mice: brain mRNA expression of TREM2 regulated genes by RT-qPCR. It counts as in vivo, humanized TREM2 knockin (hTREM2 KI) mice, C57BL/6 background. The conditions noted are these: hTREM2 KI mice, oral gavage 50 mg/kg twice a day with a 10-hour interval, brains after 24 hours, RT-qPCR relative to GAPDH, normalized to vehicle. The method, then:
Humanized TREM2 knockin (hTREM2 KI) mice were used for pharmacodynamics and pharmacokinetics studies. hTREM2 mice were generated by replacement of the mouse TREM2 gene that encodes the full-length protein by the human TREM2 gene in a C57BL/6 mouse strain background. Groups of 10 animals 8-10-week-old hTREM2 mice were treated via oral gavage administration with a TREM2 agonist compound at 50 mg/kg twice a day with a 10-hour interval. After 24 hours, mice were sacrificed and brains were isolated for RNA extraction used for reverse transcription to create complementary DNAs (cDNAs). The relative mRNA expression level of known TREM2 regulated genes were measured by quantitative reverse transcription polymerase chain reaction (RT-qPCR) relative to Glyceraldehyde-3-phosphate dehydrogenase (GAPDH) reference housekeeping gene. Expression of TREM2 regulated genes CXCL10, CCL2, CST7, and TMEM119 were measured as pharmacodynamic biomarkers after TREM2 agonist treatment normalized to vehicle control. These genes are known as microglial activation biomarkers and have previously been reported to respond to TREM2 antibody and small molecule agonist treatment in vivo.
Statistical Analyses. All graphs represent the mean of all samples in each group±SEM.
GraphPad Prism software was used to perform statistical analyses. P<0.05 was considered significant difference between vehicle and TREM2 small molecule treatment determined by T-test.
The relative expression levels for Compound 89A and vehicle were measured.

T1 sequence (Q9NZC2 19-230): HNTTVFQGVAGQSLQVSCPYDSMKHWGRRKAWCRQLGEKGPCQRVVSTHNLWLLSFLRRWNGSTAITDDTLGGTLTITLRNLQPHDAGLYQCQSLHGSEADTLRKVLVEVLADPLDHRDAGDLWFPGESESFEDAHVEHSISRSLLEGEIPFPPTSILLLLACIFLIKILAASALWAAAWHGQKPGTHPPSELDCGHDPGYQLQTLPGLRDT
T1 sequence (O43914 22-113 partner): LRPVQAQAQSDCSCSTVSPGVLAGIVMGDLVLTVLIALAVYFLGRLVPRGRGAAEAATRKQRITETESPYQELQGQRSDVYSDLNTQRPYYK

As for `Cc1nc2c(-c3ccc(Cl)cc3F)nc(N3C[C@@H](c4cnn(C)c4)OC(C)(C)C3)nc2c(=O)n1C` (single isomer, unassigned) [Example 89A], in test [1], the Emax was in the range of 75 to 110% and the EC50 is 10 to 100 nM. In test [2], the “brain expression level of CCL2 as compared to vehicle control” value is on record as 1.7 fold, the “brain expression level of CST7 as compared to vehicle control” value worked out at 3.25 fold, the “brain expression level of CXCL10 as compared to vehicle control” value is “about 2.5 fold” and the “brain expression level of TMEM119 as compared to vehicle control” value was found to be 1.8 fold.

Consider `Cc1nc2c(-c3ccc(Cl)cc3F)nc(N3CCOC(c4cnn(C5CC5)c4)C3)nc2c(=O)n1C` (centres unmarked) [Example 2, 8-(4-chloro-2-fluorophenyl)-6-(2-(1-cyclopropyl-1H-pyrazol-4-yl)morpholino)-2,3-dimethylpyrimido[5,4-d]pyrimidin-4 (3H)-one], for which, in test [1], the Emax lay in the range of 75 to 110% and the EC50 lay within 1 to 10 nM.

The values are drawn from patent US20260200926A1, “TREM2 MODULATORS” (Muna Therapeutics ApS, priority 2022, published 2026).
